Test results as given in paper PMC7999182, “Interaction of Remdesivir with Clinically Relevant Hepatic Drug Uptake Transporters” (Pharmaceutics, 2021).

Biological target: T1, OATP1B1 (Homo sapiens, UniProt Q9Y6L6)
T1 construct: expressed in transfected cells
T1 sequence (Q9Y6L6 1-691): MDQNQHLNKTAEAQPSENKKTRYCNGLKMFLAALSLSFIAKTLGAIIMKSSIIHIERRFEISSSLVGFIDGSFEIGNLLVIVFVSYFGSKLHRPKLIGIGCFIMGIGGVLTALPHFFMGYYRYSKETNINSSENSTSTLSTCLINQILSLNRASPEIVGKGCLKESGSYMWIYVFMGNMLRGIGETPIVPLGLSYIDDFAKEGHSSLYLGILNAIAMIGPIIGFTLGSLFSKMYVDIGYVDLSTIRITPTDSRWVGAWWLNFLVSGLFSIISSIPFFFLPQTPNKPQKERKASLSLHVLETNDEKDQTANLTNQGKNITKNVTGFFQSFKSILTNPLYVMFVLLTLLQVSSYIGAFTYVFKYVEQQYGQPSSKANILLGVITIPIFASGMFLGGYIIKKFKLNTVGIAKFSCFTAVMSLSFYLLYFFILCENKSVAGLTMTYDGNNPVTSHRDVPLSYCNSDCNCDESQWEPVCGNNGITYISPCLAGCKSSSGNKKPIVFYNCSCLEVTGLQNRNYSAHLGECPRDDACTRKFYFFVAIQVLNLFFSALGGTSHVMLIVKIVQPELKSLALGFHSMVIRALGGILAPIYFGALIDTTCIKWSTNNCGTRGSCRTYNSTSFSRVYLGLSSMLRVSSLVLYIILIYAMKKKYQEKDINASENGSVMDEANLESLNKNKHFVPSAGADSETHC
Assay: Remdesivir uptake into HEK cells stably expressing OATP1B1 (*1a) vs vector control
Type: in vitro ADME
Conditions: 5 µM remdesivir, 10 min
Text: Generation, cultivation and characterization of human embryonic kidney (HEK) cells stably expressing OATP1B1 refseq (=OATP1B1*1a), OATP1B1*1b, OATP1B1*5 and OATP1B1*15 [18], OATP1B3 [19], OATP2B1 [13] and OCT1 [20] have been described previously. OATP1B1 cells were cultivated in minimal essential medium (Life Technologies, Paisley, UK) and OATP1B3, OATP2B1 and OCT1 cells were cultivated in Dulbecco’s modified Eagle medium (Sigma, Darmstadt, Germany). Cultivation media were supplemented with 10% fetal calf serum, 100 U/mL penicillin and 100 µg/mL streptomycin. Cells were grown at 37 °C and 5% CO2. Functionality of the cells was confirmed by measuring uptake of prototypic substrates (see Section 2.3 and supplementary material).
Uptake assays were conducted at 37 °C according to previously described methods. For this, cells were seeded in 24-well plates (320,000 cells/well) and cultured for 2 days. Cells were then incubated for a further 24 h in culture medium with 5 mM butyrate (OATP1B3, OATP2B1, OCT1) or 10 mM butyrate (OATP1B1) to increase protein levels of recombinant transporters. Before the uptake experiments, cells were washed with the respective pre-warmed (37 °C) uptake buffer. The compositions of the uptake buffers were as follows: for OATP1B1, OATP1B3, OATP2B1: 142 mM NaCl, 12.5 mM hydroxyethylpiperazine ethanesulfonic acid, 5 mM KCl, 1 mM KH2PO4, 1.5 mM CaCl2, 1.2 mM MgSO4, 5 mM glucose, pH 7.3; for OCT1: 145 mM NaCl, 5 mM hydroxyethylpiperazine ethanesulfonic acid, 3 mM KCl, 1 mM CaCl2, 0.5 mM MgCl2, 5 mM glucose, pH 7.4. Uptake was initiated by replacing this solution with uptake buffer containing different concentrations of remdesivir as indicated. […]
Remdesivir was determined by UHPLC-MS-MS analysis on an Agilent 1290 infinity UHPLC system coupled to an Agilent 6495B triple quadrupole mass spectrometer (Agilent, Waldbronn, Germany) similar to a recently published method. […]

With `CCC(CC)COC(=O)[C@H](C)N[P@](=O)(OC[C@H]1O[C@@](C#N)(c2ccc3c(N)ncnn23)[C@H](O)[C@@H]1O)Oc1ccccc1` [Remdesivir] the “Significance of uptake vs control cells” value was “Statistically significant uptake”, the Remdesivir uptake ratio (transporter-expressing vs control HEK cells) was 1.3 and the “Accumulation vs vector-transfected control cells” value (OATP1B1*1a cells) was “moderately higher”.
